Assay results as given in patent US7795290B2 (Genentech, Inc., priority 2004, dated 2010).

Each molecule was assayed against T1, AKT1 (Homo sapiens, UniProt P31749) (assay: HTS ATP-utilizing enzyme assay, off-chip mobility-shift (Caliper HTS 250)). Settings: kinase named = inhibitory activity/selectivity; test compound 10 μM; active = greater than three-sigma from mean.
T1 construct: purchased Upstate 14-276
Format: biochemical
How it was run: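 AKT1 activity was measured by off-chip mobility shift (Caliper HTS 250) as the ratio of peptide substrate to phosphorylated product. Test compound was at 10 μM, with 2.5 h incubation at 20–22° C. EDTA wells served as 100% control and DMSO wells as 0%. Hits were called at three-sigma limits.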

T1 sequence (P31749 whole entry): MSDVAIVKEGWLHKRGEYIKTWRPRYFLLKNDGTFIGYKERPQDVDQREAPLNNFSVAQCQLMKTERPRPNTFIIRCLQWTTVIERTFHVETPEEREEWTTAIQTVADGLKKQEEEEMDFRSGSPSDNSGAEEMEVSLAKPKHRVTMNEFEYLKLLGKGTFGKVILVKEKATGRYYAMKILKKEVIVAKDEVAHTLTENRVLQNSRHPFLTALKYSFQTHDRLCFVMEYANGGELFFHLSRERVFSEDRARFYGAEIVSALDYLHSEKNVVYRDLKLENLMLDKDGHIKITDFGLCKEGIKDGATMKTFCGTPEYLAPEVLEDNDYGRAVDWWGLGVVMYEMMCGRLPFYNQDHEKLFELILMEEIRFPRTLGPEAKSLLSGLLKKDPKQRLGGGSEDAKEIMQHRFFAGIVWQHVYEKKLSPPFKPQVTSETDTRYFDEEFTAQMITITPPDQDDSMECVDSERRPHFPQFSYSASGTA

Activity	SMILES
AKT1	COc1ccc(OC)c(-c2csc(N(CCCN3CCCC3)C(=O)c3ccccc3)n2)c1 [N-(4-(2,5-dimethoxyphenyl)thiazol-2-yl)-N-(3-(pyrrolidin-1-yl)propyl)benzamide]
AKT1	COc1ccc(OC)c(-c2csc(N(CCCN3CCCC3)C(=O)c3ccco3)n2)c1 [N-(4-(2,5-dimethoxyphenyl)thiazol-2-yl)-N-(3-(pyrrolidin-1-yl)propyl)furan-2-carboxamide]
AKT1	COc1ccc(OC)c(-c2csc(N(CCCN3CCCC3)C(=O)c3cccs3)n2)c1 [N-(4-(2,5-dimethoxyphenyl)thiazol-2-yl)-N-(3-(pyrrolidin-1-yl)propyl)thiophene-2-carboxamide]
AKT1	COc1ccc(OC)c(-c2csc(N(CCCN3CCOCC3)C(=O)c3ccco3)n2)c1 [N-(4-(2,5-dimethoxyphenyl)thiazol-2-yl)-N-(3-morpholinopropyl)furan-2-carboxamide]
AKT1	COc1ccc(OC)c(-c2csc(N(CCCN3CCOCC3)C(=O)c3cccs3)n2)c1 [N-(4-(2,5-dimethoxyphenyl)thiazol-2-yl)-N-(3-morpholinopropyl)thiophene-2-carboxamide]
AKT1	COc1ccc(-c2csc(N(CCCN3CCOCC3)C(=O)c3cccs3)n2)c(OC)n1 [N-(4-(2,6-dimethoxypyridin-3-yl)thiazol-2-yl)-N-(3-morpholinopropyl)thiophene-2-carboxamide]
AKT1	NC(=O)CNC(=O)CCCN(C(=O)c1cccs1)c1nc(-c2cc3ccccc3o2)cs1 [N-(4-(2-amino-2-oxoethylamino)-4-oxobutyl)-N-(4-(benzofuran-2-yl)thiazol-2-yl)thiophene-2-carboxamide]
AKT1	O=C(c1cccs1)N(CCCN1CCOCC1)c1nc(-c2ccccc2Cl)cs1 [N-(4-(2-chlorophenyl)thiazol-2-yl)-N-(3-morpholinopropyl)thiophene-2-carboxamide]
AKT1	O=C(c1cccs1)N(CCCN1CCOCC1)c1nc(-c2ccccc2F)cs1 [N-(4-(2-fluorophenyl)thiazol-2-yl)-N-(3-morpholinopropyl)thiophene-2-carboxamide]
AKT1	COc1ccccc1-c1csc(N(CCCN2CCOCC2)C(=O)c2cccs2)n1 [N-(4-(2-methoxyphenyl)thiazol-2-yl)-N-(3-morpholinopropyl)thiophene-2-carboxamide]
AKT1	O=C(c1cccs1)N(CCCN1CCOCC1)c1nc(-c2ccc(Cl)c(Cl)c2)cs1 [N-(4-(3,4-dichlorophenyl)thiazol-2-yl)-N-(3-morpholinopropyl)thiophene-2-carboxamide]
AKT1	O=C(c1cccs1)N(CCCN1CCOCC1)c1nc(-c2ccc(F)c(F)c2)cs1 [N-(4-(3,4-difluorophenyl)thiazol-2-yl)-N-(3-morpholinopropyl)thiophene-2-carboxamide]
AKT1	COc1ccc(-c2csc(N(CCN3CCOCC3)C(=O)c3cccs3)n2)cc1OC [N-(4-(3,4-dimethoxyphenyl)thiazol-2-yl)-N-(2-morpholinoethyl)thiophene-2-carboxamide]
AKT1	COc1ccc(-c2csc(N(CCCN3CCCC3=O)C(=O)c3cccs3)n2)cc1OC [N-(4-(3,4-dimethoxyphenyl)thiazol-2-yl)-N-(3-(2-oxopyrrolidin-1-yl)propyl)thiophene-2-carboxamide]
AKT1	COc1ccc(-c2csc(N(CCCN3CCN(C)CC3)C(=O)c3cccs3)n2)cc1OC [N-(4-(3,4-dimethoxyphenyl)thiazol-2-yl)-N-(3-(4-methylpiperazin-1-yl)propyl)thiophene-2-carboxamide]
AKT1	COc1ccc(-c2csc(N(CCCN3CCCCC3)C(=O)c3cccs3)n2)cc1OC [N-(4-(3,4-dimethoxyphenyl)thiazol-2-yl)-N-(3-(piperidin-1-yl)propyl)thiophene-2-carboxamide]
AKT1	COc1ccc(-c2csc(N(CCCN3CCOCC3)C(=O)c3ccccc3)n2)cc1OC [N-(4-(3,4-dimethoxyphenyl)thiazol-2-yl)-N-(3-morpholinopropyl)benzamide]
AKT1	COc1ccc(-c2csc(N(CCCN3CCOCC3)C(=O)C3CCC3)n2)cc1OC [N-(4-(3,4-dimethoxyphenyl)thiazol-2-yl)-N-(3-morpholinopropyl)cyclobutanecarboxamide]
AKT1	COc1ccc(-c2csc(N(CCCN3CCOCC3)C(=O)C3CCCC3)n2)cc1OC [N-(4-(3,4-dimethoxyphenyl)thiazol-2-yl)-N-(3-morpholinopropyl)cyclopentanecarboxamide]
AKT1	COc1ccc(-c2csc(N(CCCN3CCOCC3)C(=O)c3ccco3)n2)cc1OC [N-(4-(3,4-dimethoxyphenyl)thiazol-2-yl)-N-(3-morpholinopropyl)furan-2-carboxamide]

Activity	SMILES
AKT1	COc1ccc(-c2csc(N(CCCN3CCOCC3)C(=O)c3ccccn3)n2)cc1OC [N-(4-(3,4-dimethoxyphenyl)thiazol-2-yl)-N-(3-morpholinopropyl)picolinamide]
AKT1	COc1ccc(-c2csc(N(CCCN3CCOCC3)C(=O)c3cccs3)n2)cc1OC [N-(4-(3,4-dimethoxyphenyl)thiazol-2-yl)-N-(3-morpholinopropyl)thiophene-2-carboxamide]
AKT1	COc1ccc(-c2csc(N(CCCc3ccccc3)C(=O)c3cccs3)n2)cc1OC [N-(4-(3,4-dimethoxyphenyl)thiazol-2-yl)-N-(3-phenylpropyl)thiophene-2-carboxamide]
AKT1	COc1ccc(-c2csc(N(CCCCCN3CCOCC3)C(=O)c3cccs3)n2)cc1OC [N-(4-(3,4-dimethoxyphenyl)thiazol-2-yl)-N-(5-morpholinopentyl)thiophene-2-carboxamide]
AKT1	CN(C)CCOc1cccc(-c2csc(N(CCCN3CCOCC3)C(=O)c3cccs3)n2)c1 [N-(4-(3-(2-(dimethylamino)ethoxy)phenyl)thiazol-2-yl)-N-(3-morpholinopropyl)thiophene-2-carboxamide]
AKT1	CN(C)CCCOc1cccc(-c2csc(N(CCCN3CCOCC3)C(=O)c3cccs3)n2)c1 [N-(4-(3-(3-(dimethylamino)propoxy)phenyl)thiazol-2-yl)-N-(3-morpholinopropyl)thiophene-2-carboxamide]
AKT1	O=C(c1cccs1)N(CCCN1CCOCC1)c1nc(-c2cc(-c3ccc(Cl)cc3)no2)cs1 [N-(4-(3-(4-chlorophenyl)isoxazol-5-yl)thiazol-2-yl)-N-(3-morpholinopropyl)thiophene-2-carboxamide]
AKT1	CC(=O)NC1CCN(C(=O)CCCN(C(=O)c2cccs2)c2nc(-c3cc4ccccc4o3)cs2)C1 (stereo not shown) [N-(4-(3-acetamidopyrrolidin-1-yl)-4-oxobutyl)-N-(4-(benzofuran-2-yl)thiazol-2-yl)thiophene-2-carboxamide]
AKT1	O=C(c1cccs1)N(CCCN1CCOCC1)c1nc(-c2cccc(Br)c2)cs1 [N-(4-(3-bromophenyl)thiazol-2-yl)-N-(3-morpholinopropyl)thiophene-2-carboxamide]
AKT1	O=C(c1cccs1)N(CCCN1CCOCC1)c1nc(-c2cccc(Cl)c2)cs1 [N-(4-(3-chlorophenyl)thiazol-2-yl)-N-(3-morpholinopropyl)thiophene-2-carboxamide]
AKT1	O=C(c1cccs1)N(CCCN1CCOCC1)c1nc(-c2cccc(F)c2)cs1 [N-(4-(3-fluorophenyl)thiazol-2-yl)-N-(3-morpholinopropyl)thiophene-2-carboxamide]
AKT1	COc1cccc(-c2csc(N(CCCN3CCOCC3)C(=O)c3cccs3)n2)c1 [N-(4-(3-methoxyphenyl)thiazol-2-yl)-N-(3-morpholinopropyl)thiophene-2-carboxamide]
AKT1	Cc1c(-c2csc(N(CCCN3CCOCC3)C(=O)c3cccs3)n2)sc2ccccc12 [N-(4-(3-methylbenzo[b]thiophen-2-yl)thiazol-2-yl)-N-(3-morpholinopropyl)thiophene-2-carboxamide]
AKT1	CN(C)CCOc1ccc(-c2csc(N(CCCN3CCOCC3)C(=O)c3cccs3)n2)cc1 [N-(4-(4-(2-(dimethylamino)ethoxy)phenyl)thiazol-2-yl)-N-(3-morpholinopropyl)thiophene-2-carboxamide]
AKT1	CN(C)CCNC(=O)c1ccc(-c2csc(N(CCCN3CCOCC3)C(=O)c3cccs3)n2)cc1 [N-(4-(4-(2-(dimethylamino)ethylcarbamoyl)phenyl)thiazol-2-yl)-N-(3-morpholinopropyl)thiophene-2-carboxamide]
AKT1	O=C(NCCO)c1ccc(-c2csc(N(CCCN3CCOCC3)C(=O)c3cccs3)n2)cc1 [N-(4-(4-(2-hydroxyethylcarbamoyl)phenyl)thiazol-2-yl)-N-(3-morpholinopropyl)thiophene-2-carboxamide]
AKT1	O=C(NCCN1CCOCC1)c1ccc(-c2csc(N(CCCN3CCOCC3)C(=O)c3cccs3)n2)cc1 [N-(4-(4-(2-morpholinoethylcarbamoyl)phenyl)thiazol-2-yl)-N-(3-morpholinopropyl)thiophene-2-carboxamide]
AKT1	CN(C)CCCOc1ccc(-c2csc(N(CCCN3CCOCC3)C(=O)c3cccs3)n2)cc1 [N-(4-(4-(3-(dimethylamino)propoxy)phenyl)thiazol-2-yl)-N-(3-morpholinopropyl)thiophene-2-carboxamide]
AKT1	CN(C)CCCNC(=O)c1ccc(-c2csc(N(CCCN3CCOCC3)C(=O)c3cccs3)n2)cc1 [N-(4-(4-(3-(dimethylamino)propylcarbamoyl)phenyl)thiazol-2-yl)-N-(3-morpholinopropyl)thiophene-2-carboxamide]
AKT1	O=C(NCCCO)c1ccc(-c2csc(N(CCCN3CCOCC3)C(=O)c3cccs3)n2)cc1 [N-(4-(4-(3-hydroxypropylcarbamoyl)phenyl)thiazol-2-yl)-N-(3-morpholinopropyl)thiophene-2-carboxamide]
